Values quoted from earlier work, collected in US20220401449A1, “COMPOSITIONS PROVIDING SLOW RELEASE OF CAFFEINE AND BEVERAGES COMPRISING THE SAME” (priority 2021, published 2022).
Like-named read-outs stand apart in the source and are kept apart here.

## Cn1c(=O)c2c(ncn2C)n(C)c1=O [caffeine]
80° C.
  caffeine's saturation concentration in water: about 200 mg/ml
Room temperature
  caffeine's saturation concentration in water: about 16 mg/ml
